The results in this text go back to US11312754B2, “Sunflower seed protein-derived peptides” (ACCESS BUSINESS GROUP INTERNATIONAL LLC, priority 2019, dated 2022).

Experiment [1] is described as follows: Hydroxyl radical scavenging activity (HRSA) assay. Conditions: individual isolated peptides. As for the experimental part: The hydroxyl radical scavenging activity of crude hydrolysate and the protein hydrolysate composition of Fraction 7 is determined by dissolving samples (crude hydrolysate and the protein hydrolysate composition of Fraction 7 of Example 1) and 1,10-phenanthroline in 0.1 M sodium phosphate buffer (pH 7.4). FeSO4 (3 mM) and 0.01% hydrogen peroxide are separately dissolved in distilled water. An aliquot (50 μL) of samples (final assay concentration of 0.5 mg/mL) or buffer (control) is first added to a clear, flat bottom 96-well plate followed by additions of 50 μL of 1,10-phenanthroline and 50 μL of FeSO4. To initiate reaction in the wells, 50 μL of hydrogen peroxide (H2O2) solution is added to the mixture, which is then covered and incubated at 37° C. for 1 h with shaking. Absorbance is measured at 536 nm every 10 min for a period of 1 h.
The procedure set forth above for Examples 12 & 13 is repeated using samples containing one of the isolated peptides 1-4 of Fraction 7 of Example 1.

For another experiment, the target named is ACE (Homo sapiens, UniProt P12821). Kind of experiment: ACE inhibition assay (FAPGG substrate). Conditions: individual isolated peptides. The experiment is classed as biochemical. On the procedure:
The ability of sample to inhibit in vitro activity of ACE is determined by mixing 1 mL of FAPGG (0.5 mM, dissolved in buffer [50 mM Tris-HCl buffer containing 0.3 M NaCl, pH 7.5]) with 20 μL ACE (1 U/mL, final activity of 20 mU) and 200 μL sample (crude hydrolysate and the protein hydrolysate composition of Fraction 7 of Example 1, each dissolved in buffer to 1 mg/mL). The rate of decrease in absorbance at 345 nm is recorded for 2 min at room temperature. The results of the assay are set forth in Table 3 below, expressed as percent inhibition.
The procedure set forth above for Examples 16 & 17 is repeated using samples containing one of the isolated peptides 1-4 of Fraction 7 of Example 1.

Another experiment deals with T1, human recombinant renin (Homo sapiens, UniProt P00797).
T1 construct: purchased
T1 sequence (P00797 67-406): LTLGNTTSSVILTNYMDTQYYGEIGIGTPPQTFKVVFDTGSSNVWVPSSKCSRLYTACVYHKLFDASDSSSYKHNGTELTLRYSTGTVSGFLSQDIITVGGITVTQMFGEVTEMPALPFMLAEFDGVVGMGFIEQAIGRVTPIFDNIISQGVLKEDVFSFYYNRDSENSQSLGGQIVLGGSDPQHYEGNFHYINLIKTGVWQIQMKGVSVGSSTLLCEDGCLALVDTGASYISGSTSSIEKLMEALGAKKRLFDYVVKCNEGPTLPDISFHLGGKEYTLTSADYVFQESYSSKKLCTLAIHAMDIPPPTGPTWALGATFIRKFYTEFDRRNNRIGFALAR
As to the kind of experiment: Renin inhibition assay (Renin Inhibitor Screening Assay Kit). The format is biochemical. Conditions: individual isolated peptides, 1 mg/mL; read-out: % Inhibition ± SD of renin activity. As for the experimental part:
In vitro inhibitory activity of human recombinant renin is conducted using a Renin Inhibitor Screening Assay Kit. Samples (crude hydrolysate and the protein hydrolysate composition of Fraction 7 of Example 1) are diluted in Tris-HCl buffer (50 mM, pH 8.0, containing 100 mM NaCl) to a final concentration 0.5 mg/mL, and pre-warmed to 37° C. The reaction is initiated by adding renin (10 μL), shaking for 10 s to mix, and incubating at 37° C. for 15 min. Fluorescence intensity (FI) is then recorded at an excitation wavelength of 340 nm and an emission wavelength of 490 nm using a fluorometric microplate reader. The results of the assay are set forth in Table 3 below, expressed as percent inhibition. The procedure set forth above for Examples 18 & 19 is repeated at 1 mg/mL concentrations using samples containing one of the isolated peptides 1-4 of Fraction 7 of Example 1.

Experiment [2] can be described thus: DPPH radical scavenging assay. Conditions: individual isolated peptides. On the procedure:
The scavenging activity of crude hydrolysate and the protein hydrolysate composition of Fraction 7 against DPPH is determined by first dissolving samples (crude hydrolysate and the protein hydrolysate composition of Fraction 7 of Example 1) in 0.1 M sodium phosphate buffer, pH 7.0 containing 1% (w/v) Triton X-100. DPPH is dissolved in methanol to a final concentration of 100 μM, and mixed with the samples in the 96-well plate to a final assay concentration of 1 mg/mL. The samples are then incubated at room temperature in the dark for 30 min, and the absorbance read at 517 nm.
The procedure set forth about for Examples 10 & 11 is repeated using samples containing one of the isolated peptides 1-4 of Fraction 7 of Example 1.
(In general: Loss of DPPH colour is used to gauge radical scavenging.)

In general, IC50 refers to the concentration that gives 50% inhibition. In general, inhibition refers to the drop in the measured response relative to a control, in per cent.

In brackets after ≈: the same amount, converted by molar mass. Where a SMILES comes first, the peptide text is derived from it. Where no end group is shown, it is not given here.

Sequence of ACE (P12821 30-1306, species assumed): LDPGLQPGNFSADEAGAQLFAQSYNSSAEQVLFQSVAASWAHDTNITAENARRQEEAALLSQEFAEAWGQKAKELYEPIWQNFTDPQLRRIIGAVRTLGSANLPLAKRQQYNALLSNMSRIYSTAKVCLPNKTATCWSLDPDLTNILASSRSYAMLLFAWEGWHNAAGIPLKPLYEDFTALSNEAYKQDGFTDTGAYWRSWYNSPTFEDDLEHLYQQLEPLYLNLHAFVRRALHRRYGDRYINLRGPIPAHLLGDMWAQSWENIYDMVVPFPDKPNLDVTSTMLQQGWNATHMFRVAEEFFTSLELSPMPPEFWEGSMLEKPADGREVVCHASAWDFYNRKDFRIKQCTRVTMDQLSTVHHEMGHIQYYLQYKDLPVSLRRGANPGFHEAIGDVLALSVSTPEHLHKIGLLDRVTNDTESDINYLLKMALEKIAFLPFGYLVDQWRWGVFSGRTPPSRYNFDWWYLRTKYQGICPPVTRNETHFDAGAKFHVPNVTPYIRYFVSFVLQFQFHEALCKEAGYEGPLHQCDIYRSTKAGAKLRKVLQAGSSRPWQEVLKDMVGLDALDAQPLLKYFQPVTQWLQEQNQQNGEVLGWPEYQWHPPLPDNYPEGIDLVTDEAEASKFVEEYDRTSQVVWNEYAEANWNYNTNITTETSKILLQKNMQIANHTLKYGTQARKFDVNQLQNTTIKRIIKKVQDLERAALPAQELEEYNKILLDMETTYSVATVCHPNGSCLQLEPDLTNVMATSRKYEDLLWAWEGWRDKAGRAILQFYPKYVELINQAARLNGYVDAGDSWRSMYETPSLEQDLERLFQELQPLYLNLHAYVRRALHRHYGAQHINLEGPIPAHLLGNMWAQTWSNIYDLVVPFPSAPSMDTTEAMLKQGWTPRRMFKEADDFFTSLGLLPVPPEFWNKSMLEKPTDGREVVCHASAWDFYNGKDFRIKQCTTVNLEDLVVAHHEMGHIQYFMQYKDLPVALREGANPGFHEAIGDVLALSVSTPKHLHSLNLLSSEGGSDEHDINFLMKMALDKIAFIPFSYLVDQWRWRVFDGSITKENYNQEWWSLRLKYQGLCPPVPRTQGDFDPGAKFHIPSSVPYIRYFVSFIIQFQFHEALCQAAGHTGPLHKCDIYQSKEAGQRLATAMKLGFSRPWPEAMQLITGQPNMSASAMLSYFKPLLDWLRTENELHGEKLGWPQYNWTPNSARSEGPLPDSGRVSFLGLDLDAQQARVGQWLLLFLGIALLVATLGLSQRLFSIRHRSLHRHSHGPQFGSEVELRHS

Consider `CC(C)[C@H](NC(=O)[C@H](Cc1ccccc1)NC(=O)[C@@H](N)Cc1ccc(O)cc1)C(=O)N1CCC[C@H]1C(=O)O` [Peptide 1, Tyr-Phe-Val-Pro] (H-YFVP-OH; N-terminus and C-terminus assumed), for which the “IC50 hydrogen (hydroxyl) radical scavenging” value (“IC50 hydrogen” below) in experiment [1] was 1930 ± 20 µg/mL (≈ 3.68 mM). The compound also had an IC50 against ACE of 477 µM. The inhibition at 1000 µg/mL on human recombinant renin was -40.5 ± 6.23%. In addition, the “IC50 DPPH radical scavenging” value in experiment [2] was found to be 3850 ± 130 µg/mL (≈ 7.34 mM).

For the compound MVWGP [Peptide 3, Met-Val-Trp-Gly-Pro], in experiment [1], the “IC50 hydrogen” value is 2500 ± 30 µg/mL. Further, at ACE, half-maximal inhibition (IC50) required 35.7 µM. Also, the inhibition at 1000 µg/mL on human recombinant renin is -46.4 ± 1.56%. Further, the “IC50 DPPH radical scavenging” value in experiment [2] amounted to 4690 ± 50 µg/mL.

In the case of SGRDP [Peptide 2, Ser-Gly-Arg-Asp-Pro], the “IC50 hydrogen” value in experiment [1] was 1900 ± 80 µg/mL. The same compound showed a half-maximal inhibitory concentration (IC50) at ACE of 961 µM. At human recombinant renin, the inhibition at 1000 µg/mL was -54.5 ± 1.48%. Besides, the “IC50 DPPH radical scavenging” value in experiment [2] came to 28340 ± 380 µg/mL.

As for “TGSYTEGWS [Peptide 4, Thr-Gly-Ser-Tyr-Thr-Glu-Gly-Trp-Ser]”, the “IC50 hydrogen” value in experiment [1] turned out to be 1840 ± 10 µg/mL. Also, the IC50 on ACE is 557 µM. Also, the inhibition at 1000 µg/mL on human recombinant renin worked out at 107 ± 17.6%. Moreover, the “IC50 DPPH radical scavenging” value in experiment [2] was 4260 ± 30 µg/mL.
